Results on 25 compounds are retold here after patent US20030162777A1, “Novel N-acylated heterocycles” (Recordati S.A., priority 2001, published 2003).

For orientation: Ki means the equilibrium dissociation constant of an inhibitor or competing ligand from its target.

Each structure is given as a SMILES string.

This assay addresses T1, human 5HT1A-serotonergic receptor (Homo sapiens, UniProt P08908).
T1 construct: expressed in transfected cells; host or cells: HeLa (human cell line), stably transfected; cell membranes used
T1 sequence (P08908 1-422): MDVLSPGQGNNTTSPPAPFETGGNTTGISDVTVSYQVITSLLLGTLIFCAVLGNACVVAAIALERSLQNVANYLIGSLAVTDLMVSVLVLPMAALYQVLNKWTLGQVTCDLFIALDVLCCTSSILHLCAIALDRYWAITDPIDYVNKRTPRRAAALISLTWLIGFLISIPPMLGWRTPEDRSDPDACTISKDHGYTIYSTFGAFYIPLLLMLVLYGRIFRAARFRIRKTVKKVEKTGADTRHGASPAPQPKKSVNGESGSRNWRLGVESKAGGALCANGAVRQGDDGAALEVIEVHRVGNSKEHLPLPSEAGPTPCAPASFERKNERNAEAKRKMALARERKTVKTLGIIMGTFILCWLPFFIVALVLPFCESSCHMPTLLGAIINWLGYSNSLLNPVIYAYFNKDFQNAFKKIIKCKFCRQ
Kind of assay: Radioligand binding to recombinant 5-HT1A receptors. The settings on record: [3H]8-OH-DPAT 1 nM, membranes of HeLa cells with human 5-HT1A receptor; Ki from IC50 by Cheng & Prusoff; read-out: Binding affinity for 5HT1A receptors, Ki. The procedure, abridged:
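Membranes from HeLa cells stably expressing human 5-HT1A incubated 30 min at 30 °C with 1 nM [3H]8-OH-DPAT and compound in 50 mM Tris-HCl pH 7.4, 2.5 mM MgCl2, […] pargyline. Nonspecific binding defined with 10 μM 5-HT; filtration readout, IC50 converted to Ki via Cheng–Prusoff.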
Regarding `CC(C)(C)OC(=O)n1cc(CC(=O)N2c3ccccc3CCC2CN2CCN(c3cccc4[nH]ccc34)CC2)c2ccccc21` (stereo not shown) [Example 71A2, 1-[1-[2-(1-tert-Butoxycarbonylindol-3-yl)acetyl]-1,2,3,4-tetrahydroquinoline-2-ylmethyl]-4-(4-indolyl]piperazine], the Ki amounted to 0.092 µM.
As to `CC(C)(C)OC(=O)N1CCC(C(=O)N2c3ccccc3CCC2CN2CCN(c3cccc4[nH]ccc34)CC2)CC1` (stereo not shown) [Example 71A3, 1-[1-[4-(1-tert-Butoxycarbonylpiperidino)carbonyl]-1,2,3,4-tetrahydroquinoline-2-ylmethyl]-4-(4-indolyl)piperazine], the Ki came to 0.0406 µM.
Regarding `CC(C)(C)OC(=O)N1CCC[C@@H]1C(=O)N1c2ccccc2CCC1CN1CCN(c2cccc3[nH]ccc23)CC1` (stereo partly drawn) [Example 71A4, 1-[1-(1-tert-Butoxycarbonyl-(2R)-pyrrolidin-2yl)carbonyl-1,2,3,4-tetrahydroquinoline-2-ylmethyl]-4-(4-indolyl)piperazine], the Ki came out at 0.0459 µM.
For `CC(C)(C)OC(=O)N1CCC[C@H]1C(=O)N1c2ccccc2CCC1CN1CCN(c2cccc3[nH]ccc23)CC1` (stereo partly drawn) [Example 71A5, 1-[1-(1-tert-Butoxycarbonyl-(2S)-pyrrolidin-2yl)carbonyl-1,2,3,4-tetrahydroquinoline-2-ylmethyl]-4-(4-indolyl)piperazine] the value was 0.045 µM.
`CC(C)(C)OC(=O)NCC(=O)N1c2ccccc2CCC1CN1CCN(c2cccc3[nH]ccc23)CC1` (stereo not shown) [Example 71A, 1-[1-(2-tert-Butoxycarbonylamino)acetyl-1,2,3,4-tetrahydroquinoline-2-ylmethyl]-4-(4-indolyl)piperazine]: the inhibition constant (Ki) is 0.0357 µM.
Regarding `O=C(C1CCCCC1)N1c2ccccc2CCC1CN1CCC(c2ccccc2)CC1` (stereo not shown) [Example 72A3, 1-(1-Cyclohexanecarbonyl-1,2,3,4-tetrahydroquinolin-2-ylmethyl)-4-phenylpiperidine], the Ki was 0.0472 µM.
On to `O=C(C1CCCCC1)N1c2ccccc2CCC1CN1CCN(c2ncccc2C(F)(F)F)CC1` (stereo not shown) [Example 72A6, 1-(1-Cyclohexanecarbonyl-1,2,3,4-tetrahydroquinolin-2-ylmethyl)-4-(3-trifluoromethylpyridin-2-yl)piperazine], for which the Ki amounted to 0.0032 µM.
Next, `O=C(C1CCCCC1)N1c2ccccc2CCC1CN1CCN(c2ccc(F)cc2[N+](=O)[O-])CC1` (stereo not shown) [Example 72A7, 1-(1-Cyclohexanecarbonyl-1,2,3,4-tetrahydroquinolin-2-ylmethyl)-4-(4-fluoro-2-nitrophenyl)piperazine]: 0.0046 µM; `O=C(C1CCCCC1)N1c2ccccc2CCC1CN1CCN(c2cccc(Cl)c2Cl)CC1` (stereo not shown) [Example 72A8, 1-(1-Cyclohexanecarbonyl-1,2,3,4-tetrahydroquinolin-2-ylmethyl)-4-(2,3-dichlorophenyl)piperazine]: 0.0316 µM.
For `CCc1ccccc1N1CCN(CC2CCc3ccccc3N2C(=O)C2CCCCC2)CC1` (stereo not shown) [Example 72A11, 1-(1-Cyclohexanecarbonyl-1,2,3,4-tetrahydroquinolin-2-ylmethyl)-4-(2-ethylphenyl)piperazine], the Ki turned out to be 0.0077 µM.
For `N#Cc1ccccc1N1CCN(CC2CCc3ccccc3N2C(=O)C2CCCCC2)CC1` (stereo not shown) [Example 72A13, 1-(2-Cyanophenyl)-4-(1-cyclohexanecarbonyl-1,2,3,4-tetrahydroquinolin-2-ylmethyl)piperazine], the Ki worked out at 0.0078 µM.
Turning to `O=C(C1CCCCC1)N1c2ccccc2CCC1CN1CCN(c2cccc(O)c2)CC1` (stereo not shown) [Example 72A17, 1-(1-Cyclohexanecarbonyl-1,2,3,4-tetrahydroquinolin-2-ylmethyl)-4-(3-hydroxyphenyl)piperazine], the Ki was determined as 0.0385 µM.
As for `O=C(C1CCCCC1)N1c2ccccc2CCC1CN1CCN(c2ccc(F)cc2F)CC1` (stereo not shown) [Example 72A18, 1-(1-Cyclohexanecarbonyl-1,2,3,4-tetrahydroquinolin-2-ylmethyl)-4-(2,4-difluorophenyl)piperazine], the Ki turned out to be 0.011 µM.
Regarding `Cc1cccc(N2CCN(CC3CCc4ccccc4N3C(=O)C3CCCCC3)CC2)n1` (stereo not shown) [Example 72A20, 1-(1-Cyclohexanecarbonyl-1,2,3,4-tetrahydroquinolin-2-ylmethyl)-4-(6-methylpyridin-2-yl)piperazine], the Ki worked out at 0.0054 µM.
Regarding `O=C(C1CCCCC1)N1c2ccccc2CCC1CN1CCN(c2cccc(Cl)c2)CC1` (stereo not shown) [Example 72A23, 1-(3-Chlorophenyl)-4-(1-cyclohexanecarbonyl-1,2,3,4-tetrahydroquinolin-2-ylmethyl)piperazine], the inhibition constant Ki came to 0.0246 µM.
With `COc1cccc(N2CCN(CC3CCc4ccccc4N3C(=O)C3CCCCC3)CC2)c1` (stereo not shown) [Example 72A25, 1-(1-Cyclohexanecarbonyl-1,2,3,4-tetrahydroquinolin-2-ylmethyl)-4-(3-methoxyphenyl)piperazine], the Ki was found to be 0.0153 µM.
Next, `O=C(C1CCCCC1)N1c2ccccc2CCC1CN1CCN(c2ccc(F)cc2)CC1` (stereo not shown) [Example 72A26, 1-(1-Cyclohexanecarbonyl-1,2,3,4-tetrahydroquinolin-2-ylmethyl)-4-(4-fluorophenyl)piperazine]: 0.0196 µM.
Take `Cc1ccc(Cl)cc1N1CCN(CC2CCc3ccccc3N2C(=O)C2CCCCC2)CC1` (stereo not shown) [Example 72A29, 1-(5-Chloro-2-methylphenyl)-4-(1-cyclohexanecarbonyl-1,2,3,4-tetrahydroquinolin-2-ylmethyl)piperazine]: the Ki worked out at 0.0281 µM.
Next, `Cc1cccc(N2CCN(CC3CCc4ccccc4N3C(=O)C3CCCCC3)CC2)c1` (stereo not shown) [Example 72A30, 1-(1-Cyclohexanecarbonyl-1,2,3,4-tetrahydroquinolin-2-ylmethyl)-4-(3-methylphenyl)piperazine]: 0.0109 µM.
With `O=C(C1CCCCC1)N1c2ccccc2CCC1CN1CCC(c2cccc(F)c2)CC1` (stereo not shown) [Example 72A39, 1-(1-Cyclohexanecarbonyl-1,2,3,4-tetrahydroquinolin-2-ylmethyl)-4-(3-fluorophenyl)piperidine], the Ki is 0.0391 µM.
For `O=C(C1CCCCC1)N1c2ccccc2CCC1CN1CCC(c2ccccc2F)CC1` (stereo not shown) [Example 72A40, 1-(1-Cyclohexanecarbonyl-1,2,3,4-tetrahydroquinolin-2-!ylmethyl)-4-(2-fluorophenyl)piperidine], the Ki stood at 0.0198 µM.
Consider `O=C(C1CCCCC1)N1c2ccccc2CCC1CN1CCC(c2cccc(Cl)c2Cl)CC1` (stereo not shown) [Example 72A51, 1-(1-Cyclohexanecarbonyl-1,2,3,4-tetrahydroquinolin-2-ylmethyl)-4-(2,3-dichlorophenyl)piperidine], for which the Ki came out at 0.015 µM.
`O=C(C1CCCCC1)N1c2ccccc2CCC1CN1CCC(c2c(F)cccc2Cl)CC1` (stereo not shown) [Example 72A53, 4-(2-Chloro-6-fluorophenyl)-1-(1-cyclohexanecarbonyl-1,2,3,4-tetrahydroquinolin-2-ylmethyl)piperidine]: the Ki stood at 0.0061 µM.
As to `Cc1ccccc1C1CCN(CC2CCc3ccccc3N2C(=O)C2CCCCC2)CC1` (stereo not shown) [Example 72A56, 1-(1-Cyclohexanecarbonyl-1,2,3,4-tetrahydroquinolin-2-ylmethyl)-4-(2-methylphenyl)piperidine], the Ki is 0.0101 µM.
With `Cc1c(F)cccc1C1CCN(CC2CCc3ccccc3N2C(=O)C2CCCCC2)CC1` (stereo not shown) [Example 72A57, 1-(1-Cyclohexanecarbonyl-1,2,3,4-tetrahydroquinolin-2-ylmethyl)-4-(3-fluoro-2-methylphenyl)piperidine], the Ki was found to be 0.0064 µM.
